For one data set, the system named is yeast isolates. In words: yeast challenge of antibiotic cocktails, overall. The format is cell-based. The following applies: for fungicidal activity (in words): Example 16, ten donor tissue isolates, 24 hours; for antiyeast activity at doses which maintain tissue viability (in words): summary of Examples 14 and 15. The text has this:
The ten yeast isolates tested were:

In data set [1] the test system is Candida albicans ATCC strain 14053. The experiment in a line: survival of Candida albicans in antifungal cocktails (membrane filtration enumeration). The format is cell-based. The following applies: Example 14; for fungicidal activity (in words): Tube B, fluconazole 100 μg/ml, amphotericin B 0.6 μg/ml, or fluconazole 100 + amphotericin B 0.3 μg/ml; for surviving yeast, Tube B: Tube B (734 CFU/ml at time zero), 35° C. As to the method:
The Candida albicans used in these studies was ATCC strain 14053 (American Type Culture Collection). The purity of the strain was verified before and after cultivation.
The test organism was cultured on a Sabouraud Agar Plate, streaked for isolation, and incubated at 35° C. for 24 hours. A single colony was removed using a sterile cotton swab and placed in 5.0 ml of sterile saline. The mixture was vortexed, and dilutions were made and compared to a standard turbidity chart until the turbidity matched a 0.5 turbidity standard (a 0.5 MacFarland turbidity standard suspension). Serial dilutions were made as follows: (1) 0.5 ml of the 0.5 MacFarland turbidity standard was added to 4.5 ml of sterile normal saline (Tube A; expected population 10^5 cfu/ml); (2) 0.1 ml of the Tube A suspension was added to 9.9 ml of sterile normal saline (Tube B; expected population 10^3 cfu/ml); and (3) 0.1 ml of the Tube B suspension was added to 9.9 ml of sterile normal saline (Tube C; expected population 10 cfu/ml). Each serial dilution was vortexed for 30 seconds before the next transfer.
Tubes B and C were challenged with these cocktails. Each cocktail (24.0 ml) was placed into a sterile 115 ml plastic cup, and 1.0 ml of the yeast population from Tube B or C was added. The cups were mixed gently, capped and placed in the incubator for 24 hours at 35° C. After the prescribed incubation period, 1.0 ml of the yeast-cocktail mixture was removed from each tube and processed to obtain an enumeration of the surviving yeast organisms. The remaining mixture was placed back into the incubator and incubated for an additional 24 hours. After this incubation period, the cups were removed, swirled gently and 1.0 ml was removed, and the above process was repeated.
Enumeration of the yeast was performed as follows; each sample was tested in duplicate, One milliliter (1.0 ml) of year suspension was added to the top assembly of a sterile disposable filter apparatus which contained 99 ml of sterile normal saline. The contents were mixed gently and filtered. The filter pad was removed aseptically using sterile disposable forceps and placed on Sabouraud Agar plates. The plates were incubated at 35° C. for 24 hours, and the colonies were then counted.

Data set [2] relates to cells responsible for allograft longevity in patients. The following applies: literature: Hu et al., Lange and Hopkins, McNally and Brockbank; cited from earlier work.
Data set [3] deals with valve leaflet fibroblasts. The following applies: for AVG incorporation of 3H-glycine: Example 10; for percent of control: Example 2.
Experimental: (§1) Preferably, however, the tissue is incubated with a radioactively-labeled amino acid, and the incorporation of the amino acid into proteins is monitored by counting disintegrations per minute (DPM) per unit of tissue.
(§2) All of the valve leaflet halves were incubated for 48 hours at 37° C. in the antibiotic cocktails and then cryopreserved.
(§3) Experiment #2: Paired halves of leaflets were again used. One half was used as a fresh control and immediately labelled with ^3 H-glycine to determine leaflet fibroblast viability (see below). […] The antibiotic-treated leaflets were incubated for 48 hours at 37° C. in the antibiotic cocktails and then cryopreserved.
(§4) A 1.8 ml Nalge cryovial was used to contain the leaflet tissue. The freezing program takes the tissue from +4° to -80° C. in approx 80 to 90 minutes.
(§5) The valve leaflet halves were stored in liquid nitrogen freezer for at least two days, but no more than three weeks, before being thawed.
(§6) The valve leaflet halves were thawed by removing the valve tissue to be thawed from the liquid nitrogen freezer. As quickly as possible, the tissue was transferred to a 37° C. waterbath. When all of the ice had dissolved (about 2 minutes), the cryovial was transferred to a hood, and 4 ml of room temperature lactated Ringers plus 5% dextrose (DBLR) was dispensed into a 5-ml snap-cap tube (Falcon) for each cryovial being thawed. The exterior of the cryovial was rinsed with 70% isopropanol and any excess wiped away before opening. Using sterile forceps, the leaflet tissue was transferred into the tube containing the DBLR. The tissue was allowed to remain in D5LR for 5 minutes.
(§7) Tissue viability was assessed by the measurement of ^3 H-glycine incorporation into proteins as follows. The thawed valve leaflet halves were placed in snap-cap tubes (Falcon) containing 16 μCi of tritiated-glycine (DuPont New England Nuclear) in 1 ml of DMEM supplemented with 15 μg/ml ascorbic acid. Radiolabeled glycine incorporation was determined after a 48 hour incubation at 37° C. in an atmosphere consisting of 5% carbon dioxide in air. The tissue was then washed four times with phosphate-buffered saline, dehydrated with ethanol and ether, air dried and weighed. The tissue samples were then rehydrated with 200 μl of water and solubilized by the addition of 500 μl of 1M NaOH. After incubation at 60° C. for 1 hour, the samples were sonicated twice for 20-seconds. […] The filter discs were dried, and the proteins precipitated by addition of ice-cold 10% trichloroacetic acid for 30 minutes. This was followed by five ethanol rinses, two ether rinses, and drying. The discs were then placed in 10 ml of scintillation fluid (Cytoscint ES, ICN Biomedicals, Inc., Irvine, Calif.). Tritium incorporation was measured by scintillation counting using a LS1701 (Beckman Instruments, Inc., Palo Alto, Calif.).
(§8) The incorporation of ^3 H-glycine into proteins is expressed in disintegrations per minute (DPM) per mg of dry tissue.
Another data set in a line: in vitro. The following applies: human, heart valve leaflets, AVG % CONTRL, Example 3.
Another data set relates to bacteria. The following applies: general statement; cited from earlier work.
The test system of data set [4] is valve leaflet fibroblasts. In words: cells. The following applies: Homo sapiens, Fibroblast, read-out: AVG percent of control, Example 2.
Experimental: as §1, §2, §3, §4, §5, §6, §7, §8

Each structure is given as a SMILES string. Where “and” joins values, the source holds several entries; their conditions need not be identical. Equal values may be shown once. Read-outs that look alike come from different tables or passages of the source.

These results are taken from patent publication US5741782A, “Antibiotic cocktail and method of use” (Cryolife, Inc., priority 1996, dated 1998).

Usually viability stands for a read-out of living cells in per cent, often relative to untreated cells.

Experimental for in vitro: as §1, §2, §3, §4, §5, §6, §7, §8

Regarding `C[C@@H]1[C@H](O)[C@@H](C)/C=C/C=C/C=C/C=C/C=C/C=C/C=C/[C@H](O[C@@H]2O[C@H](C)[C@@H](O)[C@H](N)[C@@H]2O)C[C@@H]2O[C@](O)(C[C@@H](O)C[C@@H](O)[C@H](O)CC[C@@H](O)C[C@@H](O)CC(=O)O[C@H]1C)C[C@H](O)[C@H]2C(=O)O` [Amphotericin B, amphotericin B], the “fungicidal activity (in words)” value was “shows greater fungicidal activity” with yeast isolates and “fungicidal” in data set [1]. For the same compound, the “antiyeast activity at doses which maintain tissue viability (in words)” value with yeast isolates is “Neither amphotericin B, nor fluconazole, alone substantially inhibits yeast growth at doses which substantially maintain tissue viability”. Also, the “toxicity (in words)” value in data set [2] is “toxic to the cells responsible for allograft longevity in patients”. For the same compound, the “average viability (in words)” value in data set [3] (Example 5, 0.3 μg/ml amphotericin B in the antibiotic mixture) is “average viability greater than the control”. Moreover, the “MEAN incorporation of 3H-glycine” value worked out at 4965 DPM/mg in data set [3] (Example 11, 0.3 μg/ml amphotericin B, 24 hours); 4960 DPM/mg in data set [3] (Example 11, 0.6 μg/ml amphotericin B, 24 hours); 4914 DPM/mg in data set [3] (Example 11, 1.0 μg/ml amphotericin B, 24 hours); 4236 DPM/mg in data set [3] (Example 11, 2.0 μg/ml amphotericin B, 24 hours); 4452 DPM/mg in data set [3] (Example 11, 3.0 μg/ml amphotericin B, 24 hours).

`OC(Cn1cncn1)(Cn1cncn1)c1ccc(F)cc1F` [Fluconazole, fluconazole]: the “fungicidal activity (in words)” value is recorded as “did not affect the fungicidal activity greatly” in the data set with yeast isolates and “suggests a tolerance or static phenomenon” in data set [1]. Moreover, the “antiyeast activity at doses which maintain tissue viability (in words)” value with yeast isolates is “Neither amphotericin B, nor fluconazole, alone substantially inhibits yeast growth at doses which substantially maintain tissue viability”. Also, the figures for the “surviving yeast, Tube B” value in data set [1] (24 hr) and in data set [1] (48 hr) were 31 colonies and 45 colonies, respectively. Further, the “viability after treatment (in words)” value in data set [3] (Example 1, 100 μg/ml fluconazole added) is recorded as “not harmful to the tissue”.

`C[C@@H](O)[C@H]1C(=O)N2C(C(=O)O)=C(SCCN=CN)C[C@H]12` [Imipenem, imipenem]: the viability in “in vitro” (12 μg/ml imipenem + rifampin 10 μg/ml) was 86%; in “in vitro” (24 μg/ml imipenem + rifampin 10 μg/ml) it was 90%; in the data set “in vitro” (48 μg/ml imipenem + rifampin 10 μg/ml) it was 104%. Moreover, the “antibacterial activity (in words)” value in the data set on bacteria was “active against most aerobic gram-positive and gram-negative bacteria and most anaerobic gram-positive and gram-negative bacteria”. In addition, the “MEAN incorporation of 3H-glycine” value in data set [3] (Example 8, 48 μg/ml imipenem, 24 h) was 5269 DPM/mg; in data set [3] (Example 8, 48 μg/ml imipenem, 48 h) it was 5316 DPM/mg; in data set [3] (Example 8, 72 μg/ml imipenem, 24 h), 6897 DPM/mg; in data set [3] (Example 8, 72 μg/ml imipenem, 48 h), 7198 DPM/mg; in data set [3] (Example 8, 96 μg/ml imipenem, 24 h) it was 5885 DPM/mg; in data set [3] (Example 8, 96 μg/ml imipenem, 48 h) it was 6526 DPM/mg.

For the compound `CCN[C@@H]1C[C@H](N)[C@@H](O[C@H]2OC(CN)=CC[C@H]2N)[C@H](O)[C@H]1O[C@H]1OC[C@](C)(O)[C@H](NC)[C@H]1O` [Netilmicin, netilmicin], in the data set on yeast isolates, the “fungicidal activity (in words)” value is “did not have any adverse effects on the fungicidal activity of fluoconazole and amphotericin B”. Further, the “antibacterial activity (in words)” value in the data set with bacteria is “effective against many aerobic gram-negative bacteria and some aerobic gram-positive bacteria”. Further, the “lack of antibacterial activity (in words)” value in the data set on bacteria was “inactive against most streptococci and most anaerobic bacteria”. For the same compound, the “AVG incorporation of 3H-glycine” value in data set [3] (20 μg/ml netilmicin, 24 hours) was 4213 DPM/mg; in data set [3] (30 μg/ml netilmicin, 24 hours), 6805 DPM/mg; in data set [3] (50 μg/ml netilmicin, 24 hours) it was 5815 DPM/mg.

With `CO[C@H]1/C=C/O[C@@]2(C)Oc3c(C)c(O)c4c(O)c(c(/C=N/N5CCN(C)CC5)c(O)c4c3C2=O)NC(=O)/C(C)=C\C=C\[C@H](C)[C@H](O)[C@@H](C)[C@@H](O)[C@@H](C)[C@H](OC(C)=O)[C@@H]1C` [Rifampin, rifampin], the percent of control in data set [3] (10 μg/ml rifampin) is 96% and 110% and 91% and 75% and 73% and 114%; in data set [3] (30 μg/ml rifampin) it was 94%. The activity at 10 µg/mL in data set [4] (10 μg/ml rifampin) was found to be 93%. The activity at 30 µg/mL in data set [4] (30 μg/ml rifampin) worked out at 80%. In data set [4] (100 μg/ml rifampin), the activity at 100 µg/mL was found to be 42%.

For the compound `CN[C@H](CC(C)C)C(=O)N[C@H]1C(=O)N[C@@H](CC(N)=O)C(=O)N[C@H]2C(=O)N[C@H]3C(=O)N[C@H](C(=O)N[C@H](C(=O)O)c4cc(O)cc(O)c4-c4cc3ccc4O)[C@H](O)c3ccc(c(Cl)c3)Oc3cc2cc(c3O[C@@H]2O[C@H](CO)[C@@H](O)[C@H](O)[C@H]2O[C@H]2C[C@](C)(N)[C@H](O)[C@H](C)O2)Oc2ccc(cc2Cl)[C@H]1O` [Vancomycin, vancomycin], in the data set with bacteria, the “antibacterial activity (in words)” value was “active against many gram-positive organisms, including staphylococci, streptococci, enterococci, Clostridium and Corynebacterium”; the “lack of antibacterial activity (in words)” value is “inactive against gram-negative bacteria”.
